Measured values from patent publication US20040044075A1, “Alpha acyloxyacetamides for kallikrein and urokinase inhibition” (Genzyme Corporation, priority 2002, published 2004).
Values belong to the molecule of their own block, whether it stands above or below them.

What was measured:
[1] = target: Urokinase (Homo sapiens, UniProt P00749); assay: Urokinase assay (fluorometric, Cbz-Gly-Gly-Arg-AMC substrate); type: biochemical; conditions: 24° C, HEPES pH 7.5, 5% DMSO, fluorescence after ten minutes; read-out: IC50 (μM), urokinase inhibition
Procedure: (§1) Urokinase activity was assayed fluorometrically with an aminomethyl coumarin-containing (AMC-containing) substrate according to procedures described in Zimmerman et al, Proc. Natl. Acad. Sci. USA 75:750 (1978), the entire teachings of which are incorporated herein by reference. Specifically, enzyme assays with varying concentrations of the fluorogenic substrate Cbz-Gly-Gly-Arg-AMC were conducted at 24° C. in 0.05 M 4-(2-hydroxyethyl)-piperazineethanesulfonic acid (HEPES) buffer, pH 7.5/5% (vol/vol) dimethyl sulfoxide; the final volume was 0.1 ml in each assay.
Fluorescence was read after ten minutes at 360 nm (activation wavelength) and 460 nm (emission wavelength).

[2] = tested on: ICR derived male or female mice; assay: Acetic acid writhing assay; type: in vivo; conditions: for % Reduction of Writhes: one hour before acetic acid
Procedure: The analgesic activity of a number of compounds of the present invention were tested in an acetic acid writhing assay disclosed in Inoue et al., Arzneimittel Forschung Drug Research 41:228 (1991), the entire teachings of which are incorporated herein by reference. The test substance was administered intraperitoneally (500, 100 and 20 mg/kg) to groups of 3 ICR derived male or female mice weighing 22±2 g one hour before the injection of acetic acid (3%, 10 ml/kg, IP). Reduction in the number of writhes by 50% or more per group of animals observed during the 5-10 minutes period after acetic acid administration, relative to a vehicle-treated control group (challenge with acetic acid), indicates analgesic activity.

[3] = target: Kallikrein (Homo sapiens, UniProt P03952); assay: Kallikrein inhibition assay (fluorometric, H-Pro-Phe-Arg-AMC substrate); type: biochemical; conditions: 24° C, HEPES pH 7.5, 5% DMSO, fluorescence after ten minutes
Chain of Kallikrein (P03952 whole entry): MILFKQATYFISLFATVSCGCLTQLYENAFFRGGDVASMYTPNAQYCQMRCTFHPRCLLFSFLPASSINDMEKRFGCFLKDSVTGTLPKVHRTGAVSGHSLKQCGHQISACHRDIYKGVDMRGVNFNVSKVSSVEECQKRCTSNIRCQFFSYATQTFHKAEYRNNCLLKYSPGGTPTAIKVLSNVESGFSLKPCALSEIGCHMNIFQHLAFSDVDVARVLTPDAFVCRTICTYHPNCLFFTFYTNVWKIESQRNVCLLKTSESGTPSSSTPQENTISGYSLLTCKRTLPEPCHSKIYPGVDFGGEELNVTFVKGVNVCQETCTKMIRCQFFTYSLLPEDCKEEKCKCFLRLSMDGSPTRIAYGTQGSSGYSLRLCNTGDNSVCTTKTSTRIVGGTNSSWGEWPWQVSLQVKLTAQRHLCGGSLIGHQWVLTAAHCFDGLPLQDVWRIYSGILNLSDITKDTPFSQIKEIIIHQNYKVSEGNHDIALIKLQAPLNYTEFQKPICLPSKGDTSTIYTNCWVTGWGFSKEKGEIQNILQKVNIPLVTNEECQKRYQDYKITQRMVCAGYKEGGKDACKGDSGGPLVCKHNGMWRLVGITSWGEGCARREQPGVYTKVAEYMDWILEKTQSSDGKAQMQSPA
Procedure: as §1, with “Kallikrein” for “Urokinase”, “al.,” for “al,”, “H-Pro-Phe-Arg-AMC” for “Cbz-Gly-Gly-Arg-AMC”, “C” for “C.”, “sulfoxide. The” for “sulfoxide; the”, “assay. Fluorescence was read after ten minutes at 360 nm (activation wavelength) and 460 nm (emission wavelength).” for “assay.”

[4] = tested on: Long Evans derived male or female rats; assay: Carageenan assay (hind paw edema); type: in vivo; conditions: for Inhibition (of hind paw edema): 3 hours after carageenan; for Edema: hind paw edema 3 hours after carageenan
Procedure: The assay was performed according to procedures disclosed in Winter et al, Proc. Exper. Biol. Med 111: 544 (1962), the entire teachings of which are incorporated herein by reference. […] Hind paw edema, as a measure of inflammation, was measured 3 hours after carageenan administration using a plethysmometer (Ugo Basile Catalog No. 7150) with water cell (25 mm diameter, Catalog No. 7157). Reduction of hind paw edema by 30% or more indicates significant acute anti-inflammatory activity.

[5] = tested on: male rats; assay: Rat model of inflammatory bowel disease (DNBS-induced distal colitis); type: in vivo
Procedure: Compounds were tested according to procedures described in C M Hogaboam et al., Eur. J. Pharmacol. 309:261 (1996), the entire teachings of which are incorporated herein by reference. Groups of 3 overnight fasted male rats weighing 150±10 grams were used. Distal colitis was induced by intra-colonic instillation of 0.5 ml/rat of DNBS (2,4-dinitrobenzene sulfonic acid, 60 mg/ml in ethanol 30%) after which air (2 ml) was gently injected through the cannula to ensure that the solution remained in the colon. Test compound was administered orally 24 and 2 hours before DNBS instillation and then daily for 5 days in total of 7 doses. The animals were sacrificed 24 hours after the final dose of test compound administration and each colon was removed and weighed. A 30 percent or more (≧30%) inhibition in net increase of colon to 100 grams body weight ratio, relative to vehicle-control-2 group is considered significant.

[6] = 4 mg/kg PO × 7, with DNBS, rats
[7] = 20 mg/kg PO × 7, with DNBS, rats
[8] = 75 mg/kg PO × 7, with DNBS, rats
[9] = 500 mg/kg PO × 7, with DNBS, rats

IC50 [1]: 0.112 µM
Structure (SMILES): COc1ccc(CCNC(=O)C(OC(=O)CSc2ncccn2)c2ccc(C#N)cc2)cc1 (stereo not drawn) [Compound (8)]

IC50 [3]: 0.191 µM
Structure (SMILES): COc1ccc(OC)c(C(=O)CCC(=O)OC(C(=O)NCc2cc(OC)c(OC)c(OC)c2)c2ccc(Br)cc2)c1 (stereo not drawn) [Compound (26)]
% Reduction of Writhes ([2]; 20 mg/kg IP): 25%
% Reduction of Writhes ([2]; 100 mg/kg IP): 58%
% Reduction of Writhes ([2]; 500 mg/kg IP): 75%
significance of response in the acetic acid writhing test (in words) ([2]; both the 500 and 100 mg/kg doses IP): significant response
Inhibition (of hind paw edema) ([4]; 30 mg/kg IP): 0%
Edema ([4]; 30 mg/kg IP): 0.97 mL
Inhibition (of hind paw edema) ([4]; 100 mg/kg IP): 19%
Edema ([4]; 100 mg/kg IP): 0.76 mL
Inhibition (of hind paw edema) ([4]; 300 mg/kg IP): 34%
Edema ([4]; 300 mg/kg IP): 0.62 mL
dose response in the carageenan assay (in words) ([4]; 300, 100 and 30 mg/kg IP): dose responsive activity
statistical significance of response in the carageenan assay (in words) ([4]; highest dose (300 mg/kg) IP): statistically significant response
Ave. (average final weight of the colon in grams) [5, 6]: 1.061 grams
Inhibition (percent inhibition in net increase of colon weight relative to control Group 2) [5, 6]: 0%
Net Inc. (net increase in weight of the colon relative to control Group 1) [5, 6]: 0.574 grams
Ave. (average final weight of the colon in grams) [5, 7]: 0.947 grams
Inhibition (percent inhibition in net increase of colon weight relative to control Group 2) [5, 7]: 17%
Net Inc. (net increase in weight of the colon relative to control Group 1) [5, 7]: 0.460 grams
Ave. (average final weight of the colon in grams) [5, 8]: 0.857 grams
Inhibition (percent inhibition in net increase of colon weight relative to control Group 2) [5, 8]: 33%
Net Inc. (net increase in weight of the colon relative to control Group 1) [5, 8]: 0.370 grams
dose response in the rat model of inflammatory bowel disease (in words) ([5]; 75, 20 and 4 mg/kg PO × 7, rats): dose responsive activity
statistical significance of response in the rat model of inflammatory bowel disease (in words) ([5]; highest dose (75 mg/kg) PO × 7, rats): statistically significant response
activity in a rat model of inflammatory bowel disease (in words) ([5]; summary statement): activity

IC50 [1]: 2.32 µM
Structure (SMILES): COc1ccc(CC(=O)OC(C(=O)Nc2ccc(OC)c(OC)c2)c2ccc(C#N)cc2)cc1 (stereo not drawn) [Compound (41)]

IC50 [1]: 1.41 µM
Structure (SMILES): COc1ccc(CCNC(=O)C(OC(=O)CSc2ncccn2)c2ccc(Br)cc2)cc1 (stereo not drawn) [Compound (45)]

IC50 [1]: 2.93 µM
Structure (SMILES): COc1ccc(CCNC(=O)C(OC(=O)CSc2ncccn2)c2ccc3ccccc3c2)cc1 (stereo not drawn) [Compound (46)]

IC50 [1]: 2.38 µM
Structure (SMILES): COc1ccc(CCNC(=O)C(OC(=O)CSc2ncccn2)c2ccc(OC)cc2)cc1 (stereo not drawn) [Compound (47)]

IC50 [1]: 3.1 µM
Structure (SMILES): O=C(CSc1ncccn1)OC(C(=O)NCc1ccc2c(c1)OCO2)c1ccc(C(F)(F)F)cc1 (stereo not drawn) [Compound (50)]

IC50 [1]: 0.628 µM
Structure (SMILES): CCSCCNC(=O)C(OC(=O)Cc1ccc(OC)cc1)c1ccc(C#N)cc1 (stereo not drawn) [Compound (52)]

IC50 [1]: 0.814 µM
Structure (SMILES): COc1ccc(CC(=O)OC(C(=O)NC2CC2)c2ccccc2)cc1 (stereo not drawn) [Compound (54)]

IC50 [1]: 0.151 µM
Structure (SMILES): N#Cc1ccc(C(OC(=O)CCC2CCCC2)C(=O)NC2CC2)cc1 (stereo not drawn) [Compound (55)]

IC50 [1]: 0.055 µM
Structure (SMILES): N#Cc1ccc(C(OC(=O)CCC2CCCCC2)C(=O)NC2CC2)cc1 (stereo not drawn) [Compound (56)]

Second part, the molecule before the results:

Structure (SMILES): N#Cc1ccc(C(OC(=O)Cc2c[nH]c3ccccc23)C(=O)NC2CC2)cc1 (stereo not drawn) [Compound (4)]
IC50 [1]: 0.086 µM

Structure (SMILES): N#Cc1ccc(C(OC(=O)Cc2c[nH]c3ccc(Br)cc23)C(=O)NC2CC2)cc1 (stereo not drawn) [Compound (5)]
IC50 [1]: 0.029 µM

Structure (SMILES): N#Cc1ccc(C(OC(=O)CSc2ncccn2)C(=O)NC2CC2)cc1 (stereo not drawn) [Compound (6)]
IC50 [1]: 0.032 µM

Structure (SMILES): COc1ccc(CC(=O)OC(C(=O)NC2CC2)c2ccc(C#N)cc2)cc1 (stereo not drawn) [Compound (7)]
IC50 [1]: 0.11 µM

Structure (SMILES): COc1cc(CNC(=O)C(OC(=O)CSc2ncccn2)c2cccc(C#N)c2)cc(OC)c1OC (stereo not drawn) [Compound (9)]
IC50 [1]: 0.923 µM

Structure (SMILES): COc1ccc(CC(=O)OC(C(=O)NCc2ccc3c(c2)OCO3)c2ccc(C#N)cc2)cc1 (stereo not drawn) [Compound (10)]
IC50 [1]: 0.783 µM

Structure (SMILES): COc1ccc(OC)c(C(=O)CCC(=O)OC(C(=O)NCc2cc(OC)c(OC)c(OC)c2)c2ccc3ccccc3c2)c1 (stereo not drawn) [Compound (24)]
% Reduction of Writhes ([2]; 20 mg/kg IP): 0%
% Reduction of Writhes ([2]; 100 mg/kg IP): 25%
% Reduction of Writhes ([2]; 500 mg/kg IP): 83%
IC50 [3]: 0.247 µM

Structure (SMILES): COc1cc(CNC(=O)C(OC(=O)CCOc2ccccc2)c2ccc(Br)cc2)cc(OC)c1OC (stereo not drawn) [Compound (27)]
% Reduction of Writhes ([2]; 20 mg/kg IP): 8%
% Reduction of Writhes ([2]; 100 mg/kg IP): 25%
% Reduction of Writhes ([2]; 500 mg/kg IP): 92%
IC50 [3]: 0.364 µM

Structure (SMILES): COc1ccc(NC(=O)C(OC(=O)CSc2ncccn2)c2ccc(Br)cc2)cc1OC (stereo not drawn) [Compound (29)]
% Reduction of Writhes ([2]; 20 mg/kg IP): 17%
% Reduction of Writhes ([2]; 100 mg/kg IP): 33%
% Reduction of Writhes ([2]; 500 mg/kg IP): 83%
IC50 [3]: 0.31 µM

Structure (SMILES): COc1cc(CNC(=O)C(OC(=O)CCOc2ccccc2)c2cccc(C#N)c2)cc(OC)c1OC (stereo not drawn) [Compound (40)]
IC50 [1]: 6.09 µM

Structure (SMILES): COc1ccc(CC(=O)OC(C(=O)NCc2cc(OC)c(OC)c(OC)c2)c2ccc(C#N)cc2)cc1 (stereo not drawn) [Compound (42)]
IC50 [1]: 1.97 µM

Structure (SMILES): COc1ccc(NC(=O)C(OC(=O)CSc2ncccn2)c2ccc(Br)cc2)cc1OC (stereo not drawn) [Compound (43)]
IC50 [1]: 3.39 µM

Structure (SMILES): COc1cc(CNC(=O)C(OC(=O)CCC2CCCCC2)c2cccc(C#N)c2)cc(OC)c1OC (stereo not drawn) [Compound (44)]
IC50 [1]: 1.78 µM

Structure (SMILES): COc1ccc(CCNC(=O)C(OC(=O)CSc2ncccn2)c2ccc(C(F)(F)F)cc2)cc1 (stereo not drawn) [Compound (48)]
IC50 [1]: 5.38 µM

Structure (SMILES): COc1ccc(C(OC(=O)CSc2ncccn2)C(=O)NCc2ccc3c(c2)OCO3)cc1 (stereo not drawn) [Compound (49)]
IC50 [1]: 1.37 µM

Structure (SMILES): COc1ccc(CCNC(=O)C(OC(=O)Cc2ccc(OC)cc2)c2ccc(C#N)cc2)cc1 (stereo not drawn) [Compound (51)]
IC50 [1]: 1.22 µM

Structure (SMILES): CCOC(=O)CCNC(=O)C(OC(=O)Cc1ccc(OC)cc1)c1ccc(C#N)cc1 (stereo not drawn) [Compound (53)]
IC50 [1]: 1.06 µM

Structure (SMILES): COc1ccc2c(c1)c(CC(=O)O)c(C)n2C(=O)c1ccc(Cl)cc1 [Indomethacin, reference compound]
Inhibition (of hind paw edema) ([4]; 10 mg/kg IP): 53%
Edema ([4]; 10 mg/kg IP): 0.44 mL

Structure (SMILES): O=C(O)c1cc(/N=N/c2ccc(S(=O)(=O)Nc3ccccn3)cc2)ccc1O [Sulfasalazine, reference compound]
Ave. (average final weight of the colon in grams) [5, 9]: 0.865 grams
Inhibition (percent inhibition in net increase of colon weight relative to control Group 2) [5, 9]: 32%
Net Inc. (net increase in weight of the colon relative to control Group 1) [5, 9]: 0.378 grams
